Publication PMC10593742, “Binding mechanism and biological effects of flavone DYRK1A inhibitors for the design of new antidiabetics” (Scientific Reports, 2023)
Where two headings read alike, the source gives them in different places.

Tests used:
[1] = system: INS-1E cells; assay: Insulin expression level by flow cytometry, INS-1E; type: cell-based, rat; details: for effect on insulin level over 12 days: compound alone, 24 h incubation; for insulin level: harmine 1 μM
[2] = system: MIN6 cells; assay: MIN6 cell proliferation by Ki-67 staining and flow cytometry; type: cell-based, mouse; details: for Ki-67-positive cells, combination with GLP-1 / Ki-67-positive cells, combination with LY364947: MIN6; for Ki-67-positive cells, combination with GLP-1: GLP-1 5 nM
[3] = system: MIN6 cells; assay: Insulin expression level by flow cytometry, MIN6; type: cell-based, mouse; details: for effect on insulin level over 12 days: MIN6, compound alone, 24 h incubation
[4] = system: hiPSC-derived beta cells organoids; assay: Glucose-stimulated insulin secretion by ELISA, hiPSC-derived pancreatic islet organoids; type: cell-based, human; details: 24 h incubation; for insulin secretion by organoids (GSIS, ELISA): compound alone
Experimental: Differentiation of hiPSC into iPSC-derived β-cell islets was carried out following the protocol established by Pellegrini et al.[50]. A day before differentiation, 1 × 10^4 cells were seeded on coated with Geltrex (Gibco) 12 wells plate in Essential 8 medium (Gibco) with Y-27632 10 µM (Abcam). The appropriate culture media and required components based on the protocol of Pellegrini with modifications, as published in Barzowska et al.[37].
Cells and organoids were homogenized in lysis buffer.
Figure 9 Quercetin and TGFβ inhibitor—LY364947 collectively support insulin release from hiPSC-derived pancreatic islet organoids. (A) The analysis of insulin secretion by ELISA assay. […] The organoids were immunostained for insulin (green) and cytoskeleton (red). The nuclei were stained with Hoechst 33258 (blue). Scale bars, 20 μm.

[5] = target: T1, DYRK1A (Homo sapiens, UniProt Q13627); assay: Cook activity assay (DYRK1A-catalyzed phosphorylation of DYRKtide, ADP production linked to PK/LDH NADH oxidation); type: biochemical; details: for IC50: read-out: IC50 (DYRK1A inhibition)
T1 construct: In the assay, the truncated DYRK1A protein restricted to the kinase domain (126–490) was used; made in house; host or cells: E. coli LOBSTR strain

[6] = system: INS-1E cells; assay: MTT cytotoxicity and cell survival assay, INS-1E; details: for concentration range with increased cell viability (MTT): 24 h; for cytotoxic effect, combination with LY364947 or GLP-1: LY364947 […] or GLP-1 5 nM, gossypin […], rutin 1 μM
[7] = system: DYRK1A-dependent CyclinD1 phosphorylation; assay: CyclinD1 phosphorylation profile in transfected HEK293T cells (Western blot); type: cell-based; details: 10 μM, 6 h; HEK293T co-transfected with HA-CyclinD1 and Flag-DYRK1A
[8] = system: MIN6 cells; assay: Glucose-stimulated insulin secretion (GSIS) quantified by ELISA, MIN6; details: GLP-1 5 nM
[9] = system: MIN6 cells; assay: MTT cytotoxicity and cell survival assay, MIN6; details: MIN6, 24 h
[10] = LogP determination by the shake-flask method; type: physicochemical; details: n-octanol/PBS
[11] = system: DYRK1A-related NFAT signaling; assay: NFAT activity luciferase assay in HEK293T NFAT cells; type: cell-based; details: for increase in Renilla luciferase activity (NFAT reporter): 10 μM, 3 h pre-treatment, then PMA/IM 5 h, relative to DMSO
[12] = system: DYRK1A-controlled calcineurin/NFAT pathway; assay: NFAT translocation assay (NFAT-GFP, mCherry-DYRK1A) in HEK293T cells; type: cell-based; details: 10 μM, 3 h, then IM 5 μM 1 h
[13] = 5 μM, 10 μM and 20 μM of compound, DMSO = 100%
[14] = kinase domain (126–490), compound 20 nM–200 μM, ATP (128 µM)

| Compound | increase in proliferation rate (Ki-67-positive cells) vs control ([2]; MIN6, compound alone) | effect on residual DYRK1A activity [5, 13] | concentration range with increased cell viability (MTT) [6] | IC50 [5, 14] | CyclinD1 phosphorylation (p-CyclinD1 at Thr289) [7] | concentration range with increased cell viability (MTT) [9] | increase in Renilla luciferase activity (NFAT reporter) [11] | also measured |
| --- | --- | --- | --- | --- | --- | --- | --- | --- |
| c1ccc(-c2[nH]ncc2-c2ccnc3ccccc23)nc1 [LY364947] | up to 5% |  |  |  |  |  |  | effect on insulin level over 12 days [1]: less prominent but constant effect over the 12 days; effect on insulin level over 12 days [3]: less prominent but constant effect over the 12 days; insulin secretion by organoids (GSIS, ELISA) [4]: less pronounced effect |
| O=c1cc(-c2ccc(O)cc2)oc2cc(O[C@@H]3O[C@H](CO)[C@@H](O)[C@H](O)[C@H]3O)cc(O)c12 [apigetrin, 5-hydroxy-2-(4-hydroxyphenyl)-7[(2S,3R,4S,5S,6R)3,4,5-trihydroxy-6-(hydroxymethyl)oxan-2-yl]oxychromen-4-one] |  | no influence on DYRK1A activity |  |  |  |  |  |  |
| O=c1cc(-c2ccccc2)oc2cc(O)c(O)c(O)c12 [baicalein, 5,6,7-trihydroxy-2-phenylchromen-4-one] | 5% | decreased DYRK1A activity dose-dependently | 0.1 to 2.5 µM | 3.6 µM | significantly reduced CyclinD1 phosphorylation | 0.1 to 2.5 µM | threefold | insulin secretion (GSIS, ELISA), combination with GLP-1 [8]: improve insulin secretion; Ki-67-positive cells, combination with GLP-1 ([2]; control cells 32%): 55%; Ki-67-positive cells, combination with LY364947 ([2]; control cells 32%): 48%; logP at 15 min [10]: 2.55 |
| COc1cc(-c2cc(=O)c3c(O)c(OC)c(OC)c(OC)c3o2)cc(OC)c1OC [gardenin A, 5-hydroxy-6,7,8-trimethoxy-2-(3,4,5-trimethoxyphenyl)chromen-4-one] |  | no influence on DYRK1A activity |  |  |  |  |  |  |
| O=c1c(O)c(-c2ccc(O)c(O)c2)oc2c(O[C@@H]3O[C@H](CO)[C@@H](O)[C@H](O)[C@H]3O)c(O)cc(O)c12 [gossypin, 2-(3,4-dihydroxyphenyl)-3,5,7-trihydroxy-8-[(2S,3R,4S,5S,6R)-3,4,5-trihydroxy-6-(hydroxymethyl)oxan-2-yl]oxychromen-4-one] |  | decreased DYRK1A activity dose-dependently | did not influence cell viability | 1.4 µM | significantly reduced CyclinD1 phosphorylation | did not influence cell viability | twofold | cytotoxic effect, combination with LY364947 or GLP-1 [6]: slight cytotoxic effect; LogP [10]: negative logP |
| COc1ccc2c(c1)[nH]c1c(C)nccc12 [harmine] | about 20% |  | 1 to 2.5 µM |  |  | 0.01 to 10 µM |  | nuclear translocation of NFAT-GFP despite mCherry-DYRK1A overexpression [12]: induced nuclear translocation of NFAT-GFP; effect on the GLP-1-induced increase in insulin production level, administered simultaneously with GLP-1 ([1]; GLP-1 5 nM): attenuated; insulin level ([1]; day 1, control 10%): 37%; insulin level ([1]; day 5, control 28%): 34%; concentrations at which mild toxicity was observed (MTT) [9]: higher than 50 μM; Ki-67-positive cells ([2]; MIN6, compound alone, control cells 32%): 50%; Ki-67-positive cells, combination with GLP-1 ([2]; control cells 32%): 55%; Ki-67-positive cells, combination with LY364947 ([2]; control cells 32%): 58%; insulin level ([3]; MIN6, day 12, control 24%, harmine 1 μM): 37%; effect on the GLP-1-induced increase in insulin production level, administered simultaneously with GLP-1 ([3]; MIN6, GLP-1 5 nM): attenuated; logP at 15 min [10]: 3.24; insulin secretion by organoids (GSIS, ELISA), with LY364947 addition [4]: enhanced by LY364947 addition; insulin secretion by organoids (GSIS, ELISA) [4]: highest insulin secretion level |
| O=c1c(O)c(-c2ccc(O)cc2)oc2c(O)c(O)cc(O)c12 [herbacetin, 3,5,7,8-tetrahydroxy-2-(4-hydroxyphenyl)chromen-4-one] |  | decreased DYRK1A activity dose-dependently | Identical results | 6.3 µM | Moderate inhibition of CyclinD1 phosphorylation | Identical results |  | logP at 15 min [10]: 1.72; activation of NFAT response ([11]; 1 to 10 μM): only effective at the highest concentration tested |
| C[C@@H]1O[C@@H](Oc2c(-c3cc(O)c(O)c(O)c3)oc3cc(O)cc(O)c3c2=O)[C@H](O)[C@H](O)[C@H]1O [myricitrin, 5,7-dihydroxy-3-[(2S,3R,4R,5R,6S)-3,4,5-trihydroxy-6-methyloxan-2-yl]oxy-2-(3,4,5-trihydroxyphenyl)chromen-4-one] |  | no influence on DYRK1A activity |  |  |  |  |  |  |
| O=c1c(O)c(-c2ccc(O)c(O)c2)oc2cc(O)cc(O)c12 [quercetin, 2-(3,4-dihydroxyphenyl)-3,5,7-trihydroxychromen-4-one] |  |  | 0.25 to 5 µM |  | significantly reduced CyclinD1 phosphorylation | 0.25 to 5 µM | threefold | effect on residual DYRK1A activity [5]: decreased DYRK1A activity dose-dependently; IC50 [5]: 1.7 µM; effect on insulin level over 12 days [1]: noticeable decrease in insulin level on day 12; Ki-67-positive cells, combination with GLP-1 ([2]; control cells 32%): modest effect; effect on insulin level over 12 days [3]: noticeable decrease in insulin level on day 12; LogP [10]: 1.40; insulin secretion by organoids (GSIS, ELISA), with LY364947 addition [4]: enhanced by LY364947 addition; insulin secretion by organoids (GSIS, ELISA) [4]: significant increase in insulin secretion |
| C[C@@H]1O[C@@H](OC[C@H]2O[C@@H](Oc3c(-c4ccc(O)c(O)c4)oc4cc(O)cc(O)c4c3=O)[C@H](O)[C@@H](O)[C@@H]2O)[C@H](O)[C@H](O)[C@H]1O [rutin, 2-(3,4-dihydroxyphenyl)-5,7-dihydroxy-3-[(2S,3R,4S,5S,6R)-3,4,5-trihydroxy-6-[[(2R,3R,4R,5R,6S)-3,4,5-trihydroxy-6-methyloxan-2-yl]oxymethyl]oxan-2-yl]oxychromen-4-one] |  | decreased DYRK1A activity dose-dependently | did not influence cell viability | 4.5 µM | significantly reduced CyclinD1 phosphorylation | did not influence cell viability | twofold | cytotoxic effect, combination with LY364947 or GLP-1 [6]: slight cytotoxic effect; LogP [10]: negative logP |
| COc1ccc(-c2cc(=O)c3c(OC)c(OC)c(OC)cc3o2)cc1OC [sinensetin, 2-(3,4-dimethoxyphenyl)-5,6,7-trimethoxychromen-4-one] |  | no influence on DYRK1A activity |  |  |  |  |  |  |
| GLP-1: GLP-1R agonist | up to 5% |  |  |  |  |  |  | effect on insulin level over 12 days [1]: robust increase in insulin production level in the late stage of the experiment (day 5–12); effect on insulin level over 12 days [3]: robust increase in insulin production level in the late stage of the experiment (day 5–12) |
